Experimental data published in patent US20050256184A1, “1,2,4-Trioxanes and 1,2,4-trioxepanes” (priority 2004, published 2005).
Where two headings read alike, the source gives them in different places.

What was measured:
K1 Plasmodium falciparum = test: In vitro antimalarial activity, 48-h [3H]-hypoxanthine incorporation sensitivity assay; type: cell-based
Procedure: Antimalarial activity. The K1 strain of Plasmodium falciparum was used in this study. This strain is known to be CQ resistant Parasites were maintained in continuous culture using the method of Jensen and Trager (Trager, W; Jenson, J. B. Human Malaria Parasites in Continuous Culture. Science, 1976, 193, 673-675). Cultures were grown in flasks containing human erythrocytes (2-5%) with parasitemia in the range of 1% to 10% suspended in RPMI 1640 medium supplemented with 25 mM HEPES and 32 mM NaHCO3, and 10% human serum (complete medium). Cultures were gassed with a mixture of 3% O2, 4% CO2 and 93% N2. Antimalarial activity was assessed with an adaption of the 48-h sensitivity assay of Desjardins et al. using [^3H]-hypoxanthine incorporation as an assessment of parasite growth (Desjardins, R. E.; Canfield, C. J.; Haynes, J. D.; Chulay, J. D. Quantitative Assessment of Antimalarial activity in vitro by Semi-automated Microdilution Technique. Antimicrob. Agents Chemother., 1979, 16, 710-718). Stock drug solutions were prepared in 100% dimethylsulphoxide (DMSO) and diluted to the appropriate concentration using complete medium. Assays were performed in sterile 96-well microtitre plates, each plate contained 200 μl of parasite culture (2% parasitemia, 0.5% haematocrit) with or without 10 μl drug dilutions. Each drug was tested in triplicate and parasite growth compared to control wells (which consituted 100% parasite growth). After 24-h incubation at 37° C., 0.5 μCi hypoxanthine was added to each well. Cultures were incubated for a further 24 h before they were harvested onto filter-mats, dried for 1 h at 55° C. and counted using a Wallac 1450 Microbeta Trilux Liquid scintillation and luminescence counter. IC50 values were calculated by interpolation of the probit transformation of the log dose-response curve.

[1] = Erythrocyte, K1 strain (chloroquine resistant) of Plasmodium falciparum in human erythrocytes, triplicate, read-out: IC50

Structure (SMILES)	melting point	IC50 (K1 Plasmodium falciparum; [1])	IC50 (K1 Plasmodium falciparum; Plasmodium falciparum, K1, Erythrocyte)
CC1(CS(=O)(=O)c2ccccc2)COC2(CCC2)OO1 (stereo not drawn) [8e, 7-Benzenesulfonylmethyl-7-methyl-5,6,9-trioxa-spiro[3.5]nonane]	96 to 97 °C		
CC1(CS(=O)(=O)c2ccccc2)COC2(CCC(=O)CC2)OO1 (stereo not drawn) [8h, 3-Benzenesulfonylmethyl-3-methyl-1,2,5-trioxa-spiro[5.5]undecan-9-one]	96 °C		
CC1(CSc2ccccc2)COC2(CCCCCCCCCCC2)OO1 (stereo not drawn) [4j, 3-Methyl-3-phenylsulfanylmethyl-1,2,5-trioxa-spiro[5.11]heptadecane]	89 °C	135 nM	
CC1(CS(=O)(=O)c2ccccc2)COC2(CCC(C(C)(C)C)CC2)OO1 (stereo not drawn) [8g, 3-Benzenesulfonylmethyl-9-tert-butyl-3-methyl-1,2,5-trioxa-spiro[5.5]undecane]	154 °C		
C[C@@H]1CC[C@H]2[C@@H](C)C(=O)O[C@@H]3O[C@@]4(C)CC[C@@H]1[C@]32OO4 [Artemisinin, reference compound]		12 nM	
CC1(CSc2ccccc2)COC2(OO1)C1CC3CC(C1)CC2C3 (stereo not drawn) [4f, Adamantyl Trioxane]		285 nM	
CC1(CSc2ccc(Cl)cc2)COC2(CCCCCCCCCCC2)OO1 (stereo not drawn) [4k, 3-(4-Chloro-phenylsulfanylmethyl)-3-methyl-1,2,5-trioxa-spiro[5.11]heptadecane]	93 to 94 °C		
CC1(CSc2ccccc2)COC2(CCC2)OO1 (stereo not drawn) [4e, 7-Methyl-7-phenylsulfanylmethyl-5,6,9-trioxa-spiro[3.5]nonane]		314 nM	
CC1(CS(=O)(=O)c2ccccc2)COC2(OO1)C1CC3CC(C1)CC2C3 (stereo not drawn) [8f, Adamantyl sulfone trioxane]	126 to 127 °C	329 nM	
CC1(CS(=O)(=O)c2ccccc2)COC2(CCCCCCCCCCC2)OO1 (stereo not drawn) [8k, 3-Benzenesulfonylmethyl-3-methyl-1,2,5-trioxa-spiro[5.11]heptadecane]	123 to 124 °C		
CC1(CSc2ccccc2)COC2(CCCCC2)OO1 (stereo not drawn) [4c, 3-Methyl-3-phenylsulfanylmethyl-1,2,5-trioxa-spiro[5.5]undecane]	45 to 46 °C		
CCN(CC)CCCC(C)Nc1ccnc2cc(Cl)ccc12 (stereo not drawn) [Chloroquine, reference compound]			210 nM
CC1(CS(=O)(=O)c2ccc(Cl)cc2)COC2(CCCCC2)OO1 (stereo not drawn) [8i, 3-(4-Chloro-benzenesulfonylmethyl)-3-methyl-1,2,5-trioxa-spiro[5.5]undecane]	86 to 87 °C	35 nM	
CC1(CSc2ccc(Cl)cc2)COC2(CCCC2)OO1 (stereo not drawn) [4d, 8-(4-Chloro-phenylsulfanylmethyl)-8-methyl-6,7,10 trioxa-spiro[4.5]decane]	69.8 to 70 °C		
CC1(CS(=O)(=O)c2ccccc2)COC2(CCCCC2)OO1 (stereo not drawn) [8c, 3-Benzenesulfonylmethyl-3-methyl-1,2,5-trioxa-spiro[5.5]undecane]	88 to 89 °C		
